Results: patent US4263326A, “Antimicrobial compositions containing an octylphenone” (The Lion Dentrifice Co. Ltd., priority 1978, dated 1981)
Where two headings read alike, the source gives them in different places.

Key:
[1] = tested on: Bacillus subtilis; assay: Growth prevention of Bacillus subtilis in tripticase soy broth culture media at 37° C; assay type: cell-based
Protocol: For comparative purpose, three more culture media were prepared without addition of an antimicrobial agnet or with addition of 2% by weight of ethyl alcohol or 0.2% by weight of sorbic acid instead of the phenone compound and Bacillus subtilis was cultured therein similarly.

[2] = Oral LD50 in rats; assay type: in vivo; details: rat, in vivo, po
[3] = tested on: rats; assay: Oral LD50 in rats; assay type: in vivo
[4] = Irritancy / physiological activity
[5] = tested on: Aspergillus niger; parameters: key to the marks not given beside the values; details: 5%, 28° C
Protocol: (§1) The antifungal effect of the extract powder prepared in Example 2 was examined by adding it into potato-dextrose agar culture media in an amount of 0.2% by weight in which Aspergillus niger or Penicillium crysogenum were cultured at 28° C. For comparison, similar culture tests of the fungi were undertaken with the culture media in which no antimicrobial agent was added or 5% by weight of ethyl alcohol was added instead of the extract powder.
(§2) the results are summarized in Table 2 below, in which the marks "±" are for the cases where the growth of the molds was difficultly recognized, the marks "+" are for the cases where the growth of the molds could be recognized only of the hyphae though to a small extent, the mark "++" are for the cases where the growth could be recognized only of the hyphae to a considerable extent, and the marks "+++" and "++++" are for the cases where spores were formed.

[6] = tested on: Penicillium crysogenum; details: 5%, 28° C
Protocol: as §1, §2

## O=C(CCCCCCCCc1cc(O)ccc1O)c1c(O)cccc1O [2',6'-dihydroxy-9-(2,5-dihydroxyphenyl)octylphenone]
[1]; 0.002% by weight, tripticase soy broth
  duration of growth prevention: ≥ 7.5 h
[1]; 0.002% vs sorbic acid 0.2%
  effectiveness compared with sorbic acid: more effective than sorbic acid
[1]; concentration one hundredth of that of sorbic acid
  antimicrobial effect compared with sorbic acid: as good as that of sorbic acid
[2]
  LD50: ≥ 2000 mg/kg
[3]
  LD50: 2000 mg/kg
[4]
  irritancy: non-irritant
  physiological activity: physiologically inactive

## CCO [Ethyl alcohol]
[5]; 10 days
  growth of mold: ++
[5]; 18 days
  growth of mold: ++
[6]; 10 days
  growth of mold: ±
[6]; 18 days
  growth of mold: ++

## C/C=C/C=C/C(=O)O [Sorbic acid, reference compound]
[1]; 0.2% by weight, tripticase soy broth
  duration of antimicrobial effect: about 4.5 hours
